Reference: the NIST ThermoML archive (doi:10.1021/je400332j)
± gives the expanded uncertainty stated by the source.

Assay: xn = mol fraction of the nth substance listed
Conditions: 101 kPa, Liquid; for viscosity: Concentric cylinders viscometry; for mass density: Vibrating tube method

CCCn1cc[n+](C)c1.F[B-](F)(F)F [1-propyl-3-methylimidazolium tetrafluoroborate] + CCn1cc[n+](C)c1.F[B-](F)(F)F
Conditions	mass density [kg/m3]	viscosity [mPa·s]
293.15 K, x2 = 0	1239.3 ± 1.1	95.44 ± 7.7
293.15 K, x2 = 0.1003	1243.5 ± 1.1	88.85 ± 7.2
293.15 K, x2 = 0.2001	1247.8 ± 1.1	82.33 ± 6.7
293.15 K, x2 = 0.2997	1251.7 ± 1.1	76.28 ± 6.2
293.15 K, x2 = 0.3999	1256.1 ± 1.1	70.61 ± 5.7
293.15 K, x2 = 0.4996	1260.6 ± 1.1	65.46 ± 5.3
293.15 K, x2 = 0.5991	1265 ± 1.1	60.73 ± 4.9
293.15 K, x2 = 0.6997	1269.7 ± 1.1	56.34 ± 4.5
293.15 K, x2 = 0.7999	1274.4 ± 1.1	52.31 ± 4.2
293.15 K, x2 = 0.8998	1279.2 ± 1.1	48.61 ± 3.9
298.15 K, x2 = 0	1235.7 ± 1.1	74.04 ± 6
298.15 K, x2 = 0.1003	1239.8 ± 1.1	69.32 ± 5.6
298.15 K, x2 = 0.2001	1244 ± 1.1	64.62 ± 5.2
298.15 K, x2 = 0.2997	1248 ± 1.1	60.23 ± 4.9
298.15 K, x2 = 0.3999	1252.4 ± 1.1	56.1 ± 4.5
298.15 K, x2 = 0.4996	1256.9 ± 1.1	52.32 ± 4.2
298.15 K, x2 = 0.5991	1261.3 ± 1.1	48.83 ± 3.9
298.15 K, x2 = 0.6997	1266 ± 1.1	45.57 ± 3.7
298.15 K, x2 = 0.7999	1270.6 ± 1.1	42.59 ± 3.4
298.15 K, x2 = 0.8998	1275.5 ± 1.1	39.79 ± 3.2
303.15 K, x2 = 0	1232 ± 1.1	58.59 ± 4.7
303.15 K, x2 = 0.1003	1236.2 ± 1.1	55.12 ± 4.5
303.15 K, x2 = 0.2001	1240.4 ± 1.1	51.66 ± 4.2
303.15 K, x2 = 0.2997	1244.3 ± 1.1	48.42 ± 3.9
303.15 K, x2 = 0.3999	1248.7 ± 1.1	45.34 ± 3.7
303.15 K, x2 = 0.4996	1253.2 ± 1.1	42.52 ± 3.4
303.15 K, x2 = 0.5991	1257.5 ± 1.1	39.91 ± 3.2
303.15 K, x2 = 0.6997	1262.1 ± 1.1	37.45 ± 3
303.15 K, x2 = 0.7999	1266.9 ± 1.1	35.17 ± 2.8
303.15 K, x2 = 0.8998	1271.7 ± 1.1	33.06 ± 2.7
308.15 K, x2 = 0	1228.3 ± 1.1	47.16 ± 3.8
308.15 K, x2 = 0.1003	1232.5 ± 1.1	44.58 ± 3.6
308.15 K, x2 = 0.2001	1236.6 ± 1.1	41.98 ± 3.4
308.15 K, x2 = 0.2997	1240.7 ± 1.1	39.54 ± 3.2
308.15 K, x2 = 0.3999	1245 ± 1.1	37.21 ± 3
308.15 K, x2 = 0.4996	1249.3 ± 1.1	35.08 ± 2.8
308.15 K, x2 = 0.5991	1253.8 ± 1.1	33.08 ± 2.7
308.15 K, x2 = 0.6997	1258.4 ± 1.1	31.19 ± 2.5
308.15 K, x2 = 0.7999	1263.1 ± 1.1	29.45 ± 2.4
308.15 K, x2 = 0.8998	1267.7 ± 1.1	27.82 ± 2.2
313.15 K, x2 = 0	1224.7 ± 1.1	38.56 ± 3.1
313.15 K, x2 = 0.1003	1228.8 ± 1.1	36.6 ± 2.9
313.15 K, x2 = 0.2001	1233 ± 1	34.63 ± 2.8
313.15 K, x2 = 0.2997	1237 ± 1	32.76 ± 2.6
313.15 K, x2 = 0.3999	1241.3 ± 1.1	30.97 ± 2.5
313.15 K, x2 = 0.4996	1245.6 ± 1.1	29.33 ± 2.4
313.15 K, x2 = 0.5991	1250.1 ± 1.1	27.78 ± 2.2
313.15 K, x2 = 0.6997	1254.6 ± 1.1	26.3 ± 2.1
313.15 K, x2 = 0.7999	1259.3 ± 1.1	24.95 ± 2
313.15 K, x2 = 0.8998	1264 ± 1	23.67 ± 1.9
318.15 K, x2 = 0	1221 ± 1	31.98 ± 2.6
318.15 K, x2 = 0.1003	1225.1 ± 1.1	30.46 ± 2.4
318.15 K, x2 = 0.2001	1229.3 ± 1.1	28.93 ± 2.3
318.15 K, x2 = 0.2997	1233.3 ± 1.1	27.48 ± 2.2
318.15 K, x2 = 0.3999	1237.6 ± 1.1	26.08 ± 2.1
318.15 K, x2 = 0.4996	1241.9 ± 1.1	24.8 ± 2
318.15 K, x2 = 0.5991	1246.3 ± 1.1	23.6 ± 1.9
318.15 K, x2 = 0.6997	1250.9 ± 1.1	22.43 ± 1.8
318.15 K, x2 = 0.7999	1255.6 ± 1.1	21.36 ± 1.7
318.15 K, x2 = 0.8998	1260.3 ± 1.1	20.35 ± 1.6
323.15 K, x2 = 0	1217.4 ± 1.1	26.83 ± 2.2
323.15 K, x2 = 0.1003	1221.5 ± 1.1	25.66 ± 2.1
323.15 K, x2 = 0.2001	1225.6 ± 1.1	24.47 ± 2
323.15 K, x2 = 0.2997	1229.7 ± 1.1	23.33 ± 1.9
323.15 K, x2 = 0.3999	1233.9 ± 1.1	22.21 ± 1.8
323.15 K, x2 = 0.4996	1238.2 ± 1.1	21.2 ± 1.7
323.15 K, x2 = 0.5991	1242.6 ± 1.1	20.24 ± 1.6
323.15 K, x2 = 0.6997	1247.1 ± 1.1	19.31 ± 1.6
323.15 K, x2 = 0.7999	1251.8 ± 1.1	18.46 ± 1.5
323.15 K, x2 = 0.8998	1256.5 ± 1.1	17.65 ± 1.4
328.15 K, x2 = 0	1213.8 ± 1.1	22.77 ± 1.8
328.15 K, x2 = 0.1003	1217.9 ± 1.1	21.85 ± 1.8
328.15 K, x2 = 0.2001	1222 ± 1.1	20.91 ± 1.7
328.15 K, x2 = 0.2997	1226 ± 1.1	20.01 ± 1.6
328.15 K, x2 = 0.3999	1230.3 ± 1.1	19.1 ± 1.5
328.15 K, x2 = 0.4996	1234.6 ± 1.1	18.3 ± 1.5
328.15 K, x2 = 0.5991	1238.9 ± 1.1	17.52 ± 1.4
328.15 K, x2 = 0.6997	1243.4 ± 1.1	16.78 ± 1.4
328.15 K, x2 = 0.7999	1248.1 ± 1.1	16.07 ± 1.3
328.15 K, x2 = 0.8998	1252.8 ± 1.1	15.43 ± 1.2
333.15 K, x2 = 0	1210.2 ± 1.1	19.54 ± 1.6
333.15 K, x2 = 0.1003	1214.3 ± 1.1	18.8 ± 1.5
333.15 K, x2 = 0.2001	1218.4 ± 1.1	18.05 ± 1.4
333.15 K, x2 = 0.2997	1222.4 ± 1.1	17.32 ± 1.4
333.15 K, x2 = 0.3999	1226.6 ± 1.1	16.57 ± 1.3
333.15 K, x2 = 0.4996	1230.9 ± 1.1	15.92 ± 1.3
333.15 K, x2 = 0.5991	1235.2 ± 1.1	15.29 ± 1.2
333.15 K, x2 = 0.6997	1239.8 ± 1.1	14.67 ± 1.2
333.15 K, x2 = 0.7999	1244.4 ± 1.1	14.1 ± 1.1
333.15 K, x2 = 0.8998	1249.1 ± 1.1	13.58 ± 1.1
338.15 K, x2 = 0	1206.6 ± 1.1	16.92 ± 1.4
338.15 K, x2 = 0.1003	1210.7 ± 1.1	16.33 ± 1.3
338.15 K, x2 = 0.2001	1214.8 ± 1.1	15.72 ± 1.3
338.15 K, x2 = 0.2997	1218.8 ± 1.1	15.12 ± 1.2
338.15 K, x2 = 0.3999	1222.9 ± 1.1	14.49 ± 1.2
338.15 K, x2 = 0.4996	1227.3 ± 1.1	13.96 ± 1.1
338.15 K, x2 = 0.5991	1231.6 ± 1.1	13.43 ± 1.1
338.15 K, x2 = 0.6997	1236.1 ± 1.1	12.94 ± 1
338.15 K, x2 = 0.7999	1240.7 ± 1.1	12.46 ± 1
338.15 K, x2 = 0.8998	1245.4 ± 1.1	12.04 ± 0.97
343.15 K, x2 = 0	1203 ± 1.1	14.77 ± 1.2
343.15 K, x2 = 0.1003	1207.1 ± 1.1	14.3 ± 1.1
343.15 K, x2 = 0.2001	1211.1 ± 1.1	13.8 ± 1.1
343.15 K, x2 = 0.2997	1215.2 ± 1.1	13.3 ± 1.1
343.15 K, x2 = 0.3999	1219.4 ± 1.1	12.77 ± 1
343.15 K, x2 = 0.4996	1223.7 ± 1.1	12.32 ± 0.99
343.15 K, x2 = 0.5991	1228 ± 1.1	11.89 ± 0.96
343.15 K, x2 = 0.6997	1232.5 ± 1.1	11.47 ± 0.92
343.15 K, x2 = 0.7999	1237.1 ± 1.1	11.07 ± 0.89
343.15 K, x2 = 0.8998	1241.7 ± 1.1	10.74 ± 0.86
